# Results taken from publication PMC12016938, “A small molecule PKCε inhibitor reduces hyperalgesia induced by paclitaxel or opioid withdrawal” (JCI Insight, 2025).
# Where “and” joins values, the source holds several entries; their conditions need not be identical. Identical values can stand only once. Entries after “also recorded” stand apart in the source; their conditions may differ.
# Tests used:
# PKCζ = biological target: T1, PKCζ (Homo sapiens, UniProt Q05513); assay: Lance-FRET kinase assay, PKCζ; assay type: biochemical; details: Figure 1B
# T1 construct: purchased SignalChem Biotech
# Experimental: Kinase assays. CP612 was assayed against His-AVI–tagged human PKCε (1 nM) produced in Sf9 cells, and ROCK1 (Carna Biosciences; 5 nM) using the Lance-FRET kinase assay system (PerkinElmer Revvity). Other human recombinant PKCs (SignalChem Biotech) were assayed in triplicate at the following concentrations: PKCβII 1.6 nM, PKCγ 500 pM, PKCδ 5 nM, PKCθ 500 pM, and PKCζ 500 pM. PKCs were incubated in a 15 μL reaction volume with kinase buffer (20 mM Tris-HCL [pH 7.4], 10 mM MgCl2, 0.25 mM EGTA, 0.1 mg/mL BSA, and 0.15% Triton X-100), 50 nM ULight-labeled CREBtide […] (PerkinElmer, TRF0107, Revvity), and test compound. […] After incubation at 27°C for another 60 minutes, phosphorylation was detected using a FlexStation 3 Microplate Reader (Molecular Devices) in LANCE TR-FRET mode (excitation = 340 nm, emission = 665 nm) and expressed as relative fluorescence units (RFU). The percentage of inhibition was calculated as: (signal without test compound − signal with test compound)/(signal without test compound − signal without ATP) × 100. […]
# Kinase assays used 11-point concentration-response curves and results were analyzed by nonlinear regression using Prism 9 (GraphPad Software) to determine IC50 values. […] Scores for pain threshold, conditioned place preference, and self-administration were analyzed by ANOVA using the following factors. […]
# [1] = system: somatic signs of morphine withdrawal; assay: Somatic signs of morphine withdrawal precipitated by naloxone; assay type: in vivo, DBA/2J mice; parameters: key to Score: Rearing / Score: Teeth chatter / Score: Body shakes / Score: Wall climbing / Score: Backpedaling / Score: Hopping: score of 1 per occurrence and episode; key to Global Withdrawal Score (sum of all scores): sum of behavior scores, 1 point per occurrence/episode; details: for Global Withdrawal Score (sum of all scores) / Score: Backpedaling / Score: Body shakes / Score: Hopping / Score: Rearing / Score: Teeth chatter / Score: Wall climbing: individual mice, 20 min interval; for Global Withdrawal Score (sum of all scores): after naloxone (5 mg/kg, i.p.); for Score: Backpedaling / Score: Body shakes / Score: Hopping / Score: Rearing / Score: Teeth chatter / Score: Wall climbing: number of observations after naloxone (5 mg/kg, i.p.)
# Experimental: In addition to hyperalgesia, withdrawal from repeated administration of morphine produces somatic signs of withdrawal and conditioned place aversion. We tested the effects of CP612 on these responses. […] Two hours after this last injection of saline or morphine, mice were administered naloxone (5 mg/kg, i.p.) to precipitate somatic signs of withdrawal and conditioned place aversion. Withdrawal from repeated administration of morphine evoked somatic signs of withdrawal (Figure 11, A–C, and Supplemental Figure 2); only the highest dose of CP612 (40 mg/kg) reduced them (Figure 11, A–C) [H PKC inhibition (3, n = 62) = 33.34, P < 0.001]. Withdrawal from repeated administration of morphine also evoked conditioned place aversion (Figure 11, A and C) [F PKC inhibition (5,78) = 7.16, P < 0.001; mice receiving repeated administration of saline with vehicle versus mice receiving repeated administration of morphine with vehicle, P < 0.001], and this was not modified by CP612 at any dose tested (all P > 0.079).
# The place conditioning apparatus was an acrylic box enclosed in light- and sound-attenuating, ventilated chambers (MED Associates). The box had 2 compartments separated by a removable sliding door. […] The dimensions of each compartment were 13.5 × 27 × 17 cm. Infrared light beams and photodetectors located along the walls of the box measured general activity and location of the mouse in each compartment, which were recorded using Activity Monitor version 7.0.5.10 software (Med Associates). On day 0 (pretest), drug-naive mice were acclimated for 15 minutes to the place conditioning apparatus without the sliding door, so they had free access to both compartments of the apparatus. This established a baseline side preference, based on the amount of time spent in each compartment. […] On day 6 (conditioning day), mice were pretreated with vehicle (10 mL/kg, i.p.) or CP612 (5, 10, 20, or 40 mg/kg, i.p.), followed by a single injection of morphine (100 mg/kg, i.p.) 4 hours later. Two hours after this last injection of morphine, mice were administered naloxone (5 mg/kg, i.p.), to precipitate withdrawal, and were immediately confined to 1 side of the conditioning apparatus for 20 minutes. During this conditioning period, mice were filmed (Raspberry Pi Camera) to assess somatic signs of withdrawal ([39]). Given the limited number of cameras and the poor quality of some videos, we were only able to film a subset of mice. The following behaviors were given a score of 1 per occurrence and episode: body shakes (paw tremors and wet dog shakes), teeth chatter, rearing, hopping, wall climbing, and backpedaling. These scores were summed to obtain a global withdrawal score and were obtained from an independent observer who was blind to the experimental conditions. A subset of videos was scored by 2 observers, to ensure internal validity (Cronbach’s α = 0.980, Correlation Observer r = 0.97, slope 1.15, P < 0.005). On day 7 (test day), mice were placed in the conditioning apparatus with free access to both compartments, for 15 minutes. We recorded the time spent in each compartment.
# Gregory-Flores et al. (Supplementary Table and Figures)
# Figure S2. Behavioral scores of morphine withdrawal precipitated by naloxone. Male mice
# T1 sequence (Q05513 whole entry): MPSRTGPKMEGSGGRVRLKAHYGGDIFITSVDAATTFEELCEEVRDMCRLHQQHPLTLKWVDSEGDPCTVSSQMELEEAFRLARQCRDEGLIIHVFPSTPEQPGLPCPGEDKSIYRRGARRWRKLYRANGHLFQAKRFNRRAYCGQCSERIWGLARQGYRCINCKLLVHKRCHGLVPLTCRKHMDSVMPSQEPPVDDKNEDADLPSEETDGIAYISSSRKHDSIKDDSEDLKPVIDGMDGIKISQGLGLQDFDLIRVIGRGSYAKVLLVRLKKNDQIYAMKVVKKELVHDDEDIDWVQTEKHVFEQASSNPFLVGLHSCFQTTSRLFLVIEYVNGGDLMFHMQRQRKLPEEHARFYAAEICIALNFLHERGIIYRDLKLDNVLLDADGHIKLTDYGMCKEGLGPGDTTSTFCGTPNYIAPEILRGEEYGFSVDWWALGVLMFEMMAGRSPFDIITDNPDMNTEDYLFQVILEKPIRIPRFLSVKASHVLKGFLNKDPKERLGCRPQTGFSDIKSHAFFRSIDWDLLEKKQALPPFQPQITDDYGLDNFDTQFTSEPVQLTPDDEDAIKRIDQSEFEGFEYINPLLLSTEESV
compound,measurement,setting,value
N[C@H](CNC(=O)C1(c2ccc(Cl)cc2)CCCC1)c1ccc(C(=O)Nc2ccncc2)cc1 [CP612],Inhibition of atypical PKCζ,PKCζ,did not inhibit
same,Global Withdrawal Score (sum of all scores),[1]; Morphine + CP612 10 mg/kg,26 and 36 and 21 and 32 and 23 and 19 and 28 and 25 and 22 and 8 and 11 and 13 and 12
same,Score: Backpedaling,[1]; Morphine + CP612 10 mg/kg,0 and 2 and 1
same,Score: Body shakes,[1]; Morphine + CP612 10 mg/kg,6 and 9 and 7 and 10 and 2 and 11 and 8 and 1
same,Score: Hopping,[1]; Morphine + CP612 10 mg/kg,0 and 1
same,Score: Rearing,[1]; Morphine + CP612 10 mg/kg,16 and 15 and 9 and 10 and 7 and 13 and 12 and 2 and 3 and 8
same,Score: Teeth chatter,[1]; Morphine + CP612 10 mg/kg,3 and 4 and 2 and 0 and 1
same,Score: Wall climbing,[1]; Morphine + CP612 10 mg/kg,1 and 7 and 2 and 3 and 0 and 4 and 5
same,Global Withdrawal Score (sum of all scores),[1]; Morphine + CP612 40 mg/kg,17 and 23 and 18 and 11 and 8 and 4 and 10 and 13 and 9
same,Score: Backpedaling,[1]; Morphine + CP612 40 mg/kg,3.5 and 0 and 1
same,Score: Body shakes,[1]; Morphine + CP612 40 mg/kg,1 and 5 and 9 and 2 and 0
same,Score: Hopping,[1]; Morphine + CP612 40 mg/kg,0.5 and 0 and 1
same,Score: Rearing,[1]; Morphine + CP612 40 mg/kg,9 and 14 and 2 and 4 and 1 and 6 and 7 and 8
same,Score: Teeth chatter,[1]; Morphine + CP612 40 mg/kg,0.5 and 3 and 5 and 2 and 1 and 0
same,Score: Wall climbing,[1]; Morphine + CP612 40 mg/kg,2 and 1 and 0 and 3
same,Somatic signs of naloxone-precipitated morphine withdrawal,"[1]; male DBA/2J mice, CP612 10 mg/kg i.p. (low dose)",evoked signs of withdrawal
same,Effect on somatic signs of naloxone-precipitated morphine withdrawal,"[1]; male DBA/2J mice, CP612 40 mg/kg i.p., 40 mg/kg",attenuated; also recorded: reduced; also recorded: decreased
